Measured values as given in patent US7429673B2, “TRPV1 agonists, formulations containing them and uses thereof” (priority 2004, dated 2008).
Where two headings read alike, the source gives them in different places.

Assays:
human TRPV1 = target: T1, human TRPV1 (Homo sapiens, UniProt Q8NER1); test: intracellular calcium in HEK-293 cells overexpressing human TRPV1; type: cell-based; conditions: 4 μM ionomycin as maximum reference
T1 construct: expressed in transfected cells; host or cells: HEK-293

Sprague Dawley rats = test: in vivo test of induced urinary incontinence (partial urethral obstruction); design: species or system rat; conditions: operated rats; for N^o of minctions per hour: 8 weeks after urethral obstruction, instilled in the bladder in ethanol at 50 nM for 30 min; for number of minctions per hour, result in words: instilled in the bladder at 50 nM for 30 min
Procedure: The activity of the compound of example 2 was also evaluated in rats through the in vivo test of induced urinary incontinence.
Sprague Dawley rats (250±10 g) were anaesthetized with chloral hydrate. The urinary bladder was opened through an incision along the abdomen median line, and the adipose tissue surrounding the urethra and ureters was removed. The proximal urethra was then tied up with non-absorbable surgery thread to create partial urethral obstruction.
On the treatment day, the compound of example 2, the compound prepared according to Appendino et al. and resiniferotoxin as the reference standard were solubilised in ethanol and instilled in the bladder at the concentration of 50 nM. The instillation lasted 30 min: during this period the infusion pump for the saline was turned off. After incubation, the bladder was emptied of any medicament solution, then the infusion pump was turned on again.

[1] = in DMSO, read-out: pEC50 DMSO (pEC50 values for TPVR1) (converted)
[2] = in methanol, read-out: pEC50 methanol (pEC50 values for TPVR1) (converted)

T1 sequence (Q8NER1 whole entry): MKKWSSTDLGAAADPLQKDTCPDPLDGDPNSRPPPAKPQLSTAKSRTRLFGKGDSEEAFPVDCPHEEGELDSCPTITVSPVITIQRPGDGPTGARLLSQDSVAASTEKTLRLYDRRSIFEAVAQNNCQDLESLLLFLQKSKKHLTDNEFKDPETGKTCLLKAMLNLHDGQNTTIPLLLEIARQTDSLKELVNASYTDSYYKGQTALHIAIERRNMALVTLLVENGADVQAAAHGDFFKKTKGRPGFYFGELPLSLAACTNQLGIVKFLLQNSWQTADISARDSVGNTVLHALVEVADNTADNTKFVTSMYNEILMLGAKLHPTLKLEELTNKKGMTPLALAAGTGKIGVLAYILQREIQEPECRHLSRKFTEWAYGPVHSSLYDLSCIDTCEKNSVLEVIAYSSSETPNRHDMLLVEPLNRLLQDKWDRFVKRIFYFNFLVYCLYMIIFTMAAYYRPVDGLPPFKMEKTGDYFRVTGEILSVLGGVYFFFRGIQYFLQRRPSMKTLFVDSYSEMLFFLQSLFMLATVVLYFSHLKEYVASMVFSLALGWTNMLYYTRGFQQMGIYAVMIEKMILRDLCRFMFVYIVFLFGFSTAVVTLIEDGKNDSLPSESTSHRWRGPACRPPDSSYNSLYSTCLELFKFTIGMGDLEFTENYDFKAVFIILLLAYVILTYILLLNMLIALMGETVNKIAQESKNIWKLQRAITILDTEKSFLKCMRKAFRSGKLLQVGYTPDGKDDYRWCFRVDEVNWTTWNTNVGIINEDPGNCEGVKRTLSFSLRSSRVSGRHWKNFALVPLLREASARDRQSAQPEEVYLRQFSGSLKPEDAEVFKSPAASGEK

| SMILES | EC50 (human TRPV1; [1]) [nM] | N^o of minctions per hour (Sprague Dawley rats) [per hour] | number of minctions per hour, result in words (Sprague Dawley rats) | EC50 (human TRPV1; [2]) [nM] | other results |
| --- | --- | --- | --- | --- | --- |
| CCCCCC[C@H](C/C=C\CCCCCCCC(=O)NCc1ccc(O)c(OC)c1)OC(C)=O | 0.501 | – | – | – | pEC50 methanol (pEC50 values for TPVR1) (human TRPV1; in methanol): 9.40 ± 0.18 |
| CCCCCC[C@H](C/C=C\CCCCCCCC(=O)NCc1ccc(O)c(OC)c1)OC(=O)Cc1ccccc1 [Compound of example 2, 12-Phenylacetyl Rinvanil] | – | 19 ± 2 | remained similar to that of non-operated animals | – | EC50 (human TRPV1; pEC50 DMSO (pEC50 values for TPVR1), in DMSO): 0.102 nM; EC50 (human TRPV1; pEC50 methanol (pEC50 values for TPVR1), in methanol): 0.0661 nM |
| CCCCCC[C@H](C/C=C\CCCCCCCC(=O)NCc1ccc(O)c(OC)c1)OC(=O)c1ccccc1 [Compound of example 9, 12-Benzoyl Rinvanil] | 0.129 | – | – | 0.288 | – |
| CCCCCC[C@H](CC1CC1CCCCCCCC(=O)NCc1ccc(O)c(OC)c1)OC(=O)Cc1ccccc1 (some centres unmarked) [Compound of example 12, 9,10-Methylen-12-Phenylacetyl Rinvanil I] | 0.12 | – | – | 0.158 | – |
| CCCCCC[C@H](CC1OC1CCCCCCCC(=O)NCc1ccc(O)c(OC)c1)OC(=O)Cc1ccccc1 (some centres unmarked) [Compound of example 15, 9,10-Epoxy-12-Phenylacetyl Rinvanil] | 5.37 | – | – | 4.07 | – |
| C=C(C)[C@]12C[C@@H](C)[C@@]34O[C@](Cc5ccccc5)(O[C@@H]1[C@@H]3C=C(COC(=O)Cc1ccc(O)c(OC)c1)C[C@]1(O)C(=O)C(C)=C[C@@H]41)O2 [Resiniferotoxin, resiniferotoxin, reference compound] | – | 17 ± 2 | remained similar to that of non-operated animals | – | – |
